Common to all, as to type: cell-based
For assay [1], the system named is Jurkat (acute T-cell leukemia). Nature of the assay: CCK8 growth inhibition of leukemia cells, Jurkat. The settings on record: for IC50: Homo sapiens, Jurkat, 48 h, read-out: IC50 Jurkat. The method, then: (§1) Example 6: CCK8 Method to Detect the Growth Inhibitory Effect of Gossypol Isocyanate Ester Compounds on Three Kinds of Leukemia Cells
(§2) Cell lines: Jurkat (acute T-cell leukemia), HL-60 (human promyelocytic leukemia cells), K-562 (chronic myeloid leukemia), provided by the Affiliated Hospital of Guangdong Medical College. The cells were cultured in RPMI1640 medium containing 10% fetal bovine serum, penicillin […], streptomycin 100 mg/L, 37° C., 5% CO2, saturated humidity incubator, and the logarithmic growth phase cells were tested.
(§3) Test method: The logarithmic growth phase leukemia cell lines were taken, counted, and inoculated on a 96-well culture plate at a density of 1×10^5/mL, 100 μL per well. After 24 hours of cultivation, 100 μL of double-concentration medium containing different concentrations of compounds was added to each well. The medium containing the highest concentration of DMSO was used as the solvent control. After 48 hours of drug action, 20 μL of CCK8 color developing solution was added to each well, and the color was developed at 37° C. The OD450 was measured with a microplate reader until the absorbance was about 1.5. The inhibition rate was calculated using the formula: Inhibition Rate (%)=(1−Absorbance Value of Administration Group/Absorbance Value of Control Group)×100%
(§4) The half-inhibitory concentration of cells (IC50) was calculated by the Kou's method.

The subject of assay [2] is HL-60 (human promyelocytic leukemia cells). Nature of the assay: CCK8 growth inhibition of leukemia cells, HL-60. The settings on record: for IC50: Homo sapiens, HL-60, 48 h, read-out: IC50 HL-60. As for the experimental part:
as §1, §2, §3, §4

Assay [3] deals with K-562 (chronic myeloid leukemia). Nature of the assay: CCK8 growth inhibition of leukemia cells, K-562. Conditions: for IC50: Homo sapiens, K562, 48 h, read-out: IC50 K562. As for the experimental part:
as §1, §2, §3, §4

Regarding `Cc1cc(-c2ccc(NC(=O)O/C=C3\C(=O)C(O)=C(C(C)C)c4cc(C)c(-c5c(C)cc6c(c5O)/C(=C/OC(=O)Nc5ccc(-c7ccc(N)c(C)c7)cc5C)C(=O)C(O)=C6C(C)C)c(O)c43)c(C)c2)ccc1N` [Compound 5, ((8Z,8′)-1,1′,6,6′-tetrahydroxy-5,5′-diisopropyl-3,3′-dimethyl-7,7′-dioxo-[2,2′-binaphthalene]-8,8′(7H,7′H)-diylidene)bis(methaneylylidene) bis((4′-amino-3,3′-dimethyl-[1,1′-biphenyl]-4-yl)carbamate)], the IC50 (as a rule, the concentration that inhibits the measured activity by half) in assay [1] came to 32.6 µM; in assay [2], 28.4 µM; in assay [3], 48.8 µM.
Turning to `Cc1cc2c(c(O)c1-c1c(C)cc3c(c1O)/C(=C/OC(=O)Nc1ccc(N)cc1)C(=O)C(O)=C3C(C)C)/C(=C/OC(=O)Nc1ccc(N)cc1)C(=O)C(O)=C2C(C)C` [Compound 3, ((8Z,8′Z)-1,1′,6,6′-tetrahydroxy-5,5′-diisopropyl-3,3′-dimethyl-7,7′-dioxo-[2,2′-binaphthalene]-8,8′(7H,7′H)-diylidene)bis(methaneylylidene) bis((4-aminophenyl)carbamate)], the values for the IC50 in assay [1], in assay [2] and in assay [3] were 13 µM, 26.6 µM and 16.3 µM, respectively. Also, the “anti-leukemia activity (in words)” value in assay [1] (Jurkat cells, CCK8) is recorded as “active”; in assay [2] (HL-60 cells, CCK8), “active”; in assay [3] (K562 cells, CCK8) it was “active”.
For the compound `Cc1cc2c(c(O)c1-c1c(C)cc3c(c1O)/C(=C/OC(=O)Nc1cccc4c(N)cccc14)C(=O)C(O)=C3C(C)C)/C(=C/OC(=O)Nc1cccc3c(N)cccc13)C(=O)C(O)=C2C(C)C` [Compound 4, ((8Z,8′Z)-1,1′,6,6′-tetrahydroxy-5,5′-diisopropyl-3,3′-dimethyl-7,7′-dioxo-[2,2′-binaphthalene]-8,8′(7H,7′H)-diylidene)bis(methaneylylidene) bis((5-aminonaphthalen-1-yl)carbamate)], the IC50 in assay [1] turned out to be 21.7 µM; in assay [2], 15.9 µM; in assay [3] it was 21.7 µM.
As for `CCNC(=O)O/C=C1\C(=O)C(O)=C(C(C)C)c2cc(C)c(-c3c(C)cc4c(c3O)/C(=C/OC(=O)NCC)C(=O)C(O)=C4C(C)C)c(O)c21` [Compound 2, (1Z,1′Z)-(1,1′,6,6′-tetrahydroxy-5,5′-diisopropyl-3,3′-dimethyl-7,7′-dioxo-[2,2′-binaphtha-lene]-8,8′(7H,7′H)-diylidene)bis(methanylylidene) bis(ethylcarbamate)], the IC50 in assay [1] worked out at 68.2 µM; in assay [2], 92.2 µM; in assay [3], 49.1 µM.
On to `Cc1cc2c(c(O)c1-c1c(C)cc3c(c1O)/C(=C/OC(=O)Nc1ccccc1)C(=O)C(O)=C3C(C)C)/C(=C/OC(=O)Nc1ccccc1)C(=O)C(O)=C2C(C)C` [Compound 1, (1Z,1′Z)-(1,1′,6,6′-tetrahydroxy-5,5′-diisopropyl-3,3′-dimethyl-7,7′-dioxo-[2,2′-binaphthal-ene]-8,8′(7H,7′H)-diylidene)bis(methanylylidene) bis(phenylcarbamate)], for which the figures for the IC50 in assay [1], in assay [2] and in assay [3] were 18.3 µM, 31.7 µM and 37.1 µM, respectively.
